Bridge positions count the residues as written; N and C are the ends. Square brackets hold non-standard residues; d marks the D form. Peptide text beside a SMILES is read from it. * marks the point of attachment. Phe(4-CONH2) = NC(=O)c1ccc(C[C@H](N)C(=O)O)cc1; Phe(4-COOH) = N[C@@H](Cc1ccc(C(=O)O)cc1)C(=O)O; Bip = N[C@@H](Cc1ccc(-c2ccccc2)cc1)C(=O)O; Phe(3-Me) = Cc1cccc(C[C@H](N)C(=O)O)c1; NH(CH2)12COOH = O=C(O)CCCCCCCCCCCCN*; Val(3-OH) = CC(C)(O)[C@H](N)C(=O)O; 4Pal = N[C@@H](Cc1ccncc1)C(=O)O; Cha = N[C@@H](CC1CCCCC1)C(=O)O; Carboxymethyl = O=C(O)C*; Orn = NCCC[C@H](N)C(=O)O; Aun = NCCCCCCCCCCC(=O)O; Dab = NCC[C@H](N)C(=O)O; AEEA = NCCOCCOCC(=O)O

The target of this experiment is T1, PD-1/PD-L1 interaction (PE-labeled human PD-L1-Ig binding to Jurkat cell line over-expressing human PD-1) (Homo sapiens, UniProt Q15116).
T1 construct: expressed in transfected cells; host or cells: Jurkat
T1 sequence (Q15116 25-288): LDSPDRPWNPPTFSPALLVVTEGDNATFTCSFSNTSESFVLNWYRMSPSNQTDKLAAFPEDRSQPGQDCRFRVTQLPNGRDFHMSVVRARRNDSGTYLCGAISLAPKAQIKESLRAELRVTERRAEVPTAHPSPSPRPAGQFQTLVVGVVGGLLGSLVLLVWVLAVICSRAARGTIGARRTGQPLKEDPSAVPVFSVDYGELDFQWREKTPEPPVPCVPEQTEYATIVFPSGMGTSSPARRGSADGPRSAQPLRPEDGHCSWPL
The experiment can be described thus: Jurkat-PD-1 Cell Binding High-Content Screening Assay (CBA). Particulars: Jurkat cell line over-expressing human PD-1; PE-labeled PD-L1-Ig 20 nM final; read-out: Jurkat hPD1-PDL1 IC50. The format is cell-based. An outline of the steps: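 Jurkat cells stably over-expressing human PD-1 were seeded in DMEM with 10% fetal calf serum and pre-incubated with compound for 2 h at 37° C. PE-labeled human PD-L1-Ig was then added at 20 nM final for 1 hour, after which cells were fixed with paraformaldehyde, Hoechst-stained and imaged by high-content microscopy.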
As to `Cc1cccc(C[C@@H]2NC(=O)[C@H](CC(=O)O)NC(=O)[C@H](Cc3ccc(OCC(=O)O)cc3)NC(=O)[C@H](Cc3ccncc3)NC(=O)CSC[C@@H](C(=O)N[C@@H](CCN)C(=O)NCCOCCOCC(=O)NCCCCCCCCCCC(=O)O)NC(=O)[C@H](CO)NC(=O)[C@H](C(C)(C)O)NC(=O)[C@H](CC3CCCCC3)NC(=O)[C@H](CCN)NC(=O)[C@@H](CC(C)C)NC(=O)[C@H](CCC(N)=O)NC(=O)[C@H](Cc3ccc(C(=O)O)cc3)NC(=O)[C@H](Cc3ccc(-c4ccccc4)cc3)NC(=O)[C@H](Cc3ccc(C(=O)O)cc3)NC2=O)c1` [Compound 3747] ({CH2CO}-[4Pal]Y(Carboxymethyl)D[Phe(3-Me)][Phe(4-COOH)][Bip][Phe(4-COOH)]Q[dL][Dab][Cha][Val(3-OH)]SC[Dab][AEEA][Aun]-OH; thioether N-14), the IC50 was found to be 12.1 nM.

In the case of `Cc1cccc(C[C@@H]2NC(=O)[C@H](CC(=O)O)NC(=O)[C@H](Cc3ccc(OCC(=O)O)cc3)NC(=O)[C@H](Cc3ccncc3)NC(=O)CSC[C@@H](C(=O)N[C@@H](CCN)C(=O)NCCOCCOCC(=O)NCCCCCCCCCCC(=O)O)NC(=O)[C@H](CCC(=O)O)NC(=O)[C@H](C(C)(C)O)NC(=O)[C@H](CC3CCCCC3)NC(=O)[C@H](CCN)NC(=O)[C@@H](CC(C)C)NC(=O)[C@H](CCC(N)=O)NC(=O)[C@H](Cc3ccc(C(=O)O)cc3)NC(=O)[C@H](Cc3ccc(-c4ccccc4)cc3)NC(=O)[C@H](Cc3ccc(C(=O)O)cc3)NC2=O)c1` [Compound 3748] ({CH2CO}-[4Pal]Y(Carboxymethyl)D[Phe(3-Me)][Phe(4-COOH)][Bip][Phe(4-COOH)]Q[dL][Dab][Cha][Val(3-OH)]EC[Dab][AEEA][Aun]-OH; thioether N-14), the IC50 was determined as 10.5 nM.

`Cc1cccc(C[C@@H]2NC(=O)[C@H](CC(=O)O)NC(=O)[C@H](Cc3ccc(C(=O)O)cc3)NC(=O)[C@H](Cc3ccncc3)NC(=O)CSC[C@@H](C(=O)N[C@@H](CCN)C(=O)NCCOCCOCC(=O)NCCCCCCCCCCC(=O)O)NC(=O)[C@H](CO)NC(=O)[C@H](C(C)(C)O)NC(=O)[C@H](CC3CCCCC3)NC(=O)[C@H](Cc3cnc[nH]3)NC(=O)[C@@H](CC(C)C)NC(=O)[C@H](CCC(N)=O)NC(=O)[C@H](Cc3ccc(OCC(=O)O)cc3)NC(=O)[C@H](Cc3ccc(-c4ccccc4)cc3)NC(=O)[C@H](Cc3ccc(OCC(=O)O)cc3)NC2=O)c1` [Compound 3749] ({CH2CO}-[4Pal][Phe(4-COOH)]D[Phe(3-Me)]Y(Carboxymethyl)[Bip]Y(Carboxymethyl)Q[dL]H[Cha][Val(3-OH)]SC[Dab][AEEA][Aun]-OH; thioether N-14): the IC50 is 56.6 nM.

For the compound `Cc1cccc(C[C@@H]2NC(=O)[C@H](CC(=O)O)NC(=O)[C@H](Cc3ccc(C(N)=O)cc3)NC(=O)[C@H](Cc3ccncc3)NC(=O)CSC[C@@H](C(=O)N[C@@H](CCN)C(=O)NCCOCCOCC(=O)NCCCCCCCCCCC(=O)O)NC(=O)[C@H](CO)NC(=O)[C@H](C(C)(C)O)NC(=O)[C@H](CC3CCCCC3)NC(=O)[C@H](CCN)NC(=O)[C@@H](CC(C)C)NC(=O)[C@H](CCCN)NC(=O)[C@H](Cc3ccc(OCC(=O)O)cc3)NC(=O)[C@H](Cc3ccc(-c4ccccc4)cc3)NC(=O)[C@H](Cc3ccc(OCC(=O)O)cc3)NC2=O)c1` [Compound 3750] ({CH2CO}-[4Pal][Phe(4-CONH2)]D[Phe(3-Me)]Y(Carboxymethyl)[Bip]Y(Carboxymethyl)[Orn][dL][Dab][Cha][Val(3-OH)]SC[Dab][AEEA][Aun]-OH; thioether N-14), the IC50 was found to be 125 nM.

`Cc1cccc(C[C@@H]2NC(=O)[C@H](CC(=O)O)NC(=O)[C@H](Cc3ccc(OCC(=O)O)cc3)NC(=O)[C@H](CCN)NC(=O)CSC[C@@H](C(=O)N[C@@H](CCN)C(=O)NCCOCCOCC(=O)NCCOCCOCC(=O)NCCCCCCCCCCC(=O)O)NC(=O)[C@H](CCC(=O)O)NC(=O)[C@H](C(C)(C)O)NC(=O)[C@H](CC3CCCCC3)NC(=O)[C@H](CCN)NC(=O)[C@@H](CC(C)C)NC(=O)[C@H](CCCN)NC(=O)[C@H](Cc3ccc(OCC(=O)O)cc3)NC(=O)[C@H](Cc3ccc(-c4ccccc4)cc3)NC(=O)[C@H](Cc3ccc(OCC(=O)O)cc3)NC2=O)c1` [Compound 3753] ({CH2CO}-[Dab]Y(Carboxymethyl)D[Phe(3-Me)]Y(Carboxymethyl)[Bip]Y(Carboxymethyl)[Orn][dL][Dab][Cha][Val(3-OH)]EC[Dab][AEEA][AEEA][Aun]-OH; thioether N-14): the IC50 worked out at 6 nM.

As for `Cc1cccc(C[C@@H]2NC(=O)[C@H](CC(=O)O)NC(=O)[C@H](Cc3ccc(OCC(=O)O)cc3)NC(=O)[C@H](Cc3ccncc3)NC(=O)CSC[C@@H](C(=O)N[C@@H](CCN)C(=O)NCCOCCOCC(=O)NCCOCCOCC(=O)NCCCCCCCCCCCCC(=O)O)NC(=O)[C@H](CCC(=O)O)NC(=O)[C@H](C(C)C)NC(=O)[C@H](CC3CCCCC3)NC(=O)[C@H](CCN)NC(=O)[C@@H](CC(C)C)NC(=O)[C@H](CCCN)NC(=O)[C@H](Cc3ccc(C(=O)O)cc3)NC(=O)[C@H](Cc3ccc(-c4ccccc4)cc3)NC(=O)[C@H](Cc3ccc(C(=O)O)cc3)NC2=O)c1` [Compound 3754] ({CH2CO}-[4Pal]Y(Carboxymethyl)D[Phe(3-Me)][Phe(4-COOH)][Bip][Phe(4-COOH)][Orn][dL][Dab][Cha]VEC[Dab][AEEA][AEEA]-{NH(CH2)12COOH}; thioether N-14), the IC50 came to 250 nM.

Consider `Cc1cccc(C[C@@H]2NC(=O)[C@H](CC(=O)O)NC(=O)[C@H](Cc3ccc(OCC(=O)O)cc3)NC(=O)[C@H](Cc3ccncc3)NC(=O)CSC[C@@H](C(=O)N[C@@H](CCN)C(=O)NCCOCCOCC(=O)NCCOCCOCC(=O)NCCCCCCCCCCC(=O)O)NC(=O)[C@H](CCCN)NC(=O)[C@H](C(C)(C)O)NC(=O)[C@H](CC3CCCCC3)NC(=O)[C@H](CCN)NC(=O)[C@@H](CC(C)C)NC(=O)[C@H](CCCN)NC(=O)[C@H](Cc3ccc(OCC(=O)O)cc3)NC(=O)[C@H](Cc3ccc(-c4ccccc4)cc3)NC(=O)[C@H](Cc3ccc(OCC(=O)O)cc3)NC2=O)c1` [Compound 3755] ({CH2CO}-[4Pal]Y(Carboxymethyl)D[Phe(3-Me)]Y(Carboxymethyl)[Bip]Y(Carboxymethyl)[Orn][dL][Dab][Cha][Val(3-OH)][Orn]C[Dab][AEEA][AEEA][Aun]-OH; thioether N-14), for which the half-inhibitory concentration (IC50) was found to be 314 nM.

Consider `Cc1cccc(C[C@@H]2NC(=O)[C@H](CC(=O)O)NC(=O)[C@H](Cc3ccc(OCC(=O)O)cc3)NC(=O)[C@H](CCN)NC(=O)CSC[C@@H](C(=O)N[C@@H](CCN)C(=O)NCCOCCOCC(=O)NCCOCCOCC(=O)NCCCCCCCCCCC(=O)O)NC(=O)[C@H](Cc3cnc[nH]3)NC(=O)[C@H](C(C)C)NC(=O)[C@H](CC3CCCCC3)NC(=O)[C@H](CCN)NC(=O)[C@@H](CC(C)C)NC(=O)[C@H](CCCN)NC(=O)[C@H](Cc3ccc(C(=O)O)cc3)NC(=O)[C@H](Cc3ccc(-c4ccccc4)cc3)NC(=O)[C@H](Cc3ccc(C(=O)O)cc3)NC2=O)c1` [Compound 3757] ({CH2CO}-[Dab]Y(Carboxymethyl)D[Phe(3-Me)][Phe(4-COOH)][Bip][Phe(4-COOH)][Orn][dL][Dab][Cha]VHC[Dab][AEEA][AEEA][Aun]-OH; thioether N-14), for which the concentration for half-maximal inhibition (IC50) turned out to be 2.6 nM.

For `Cc1cccc(C[C@@H]2NC(=O)[C@H](CC(=O)O)NC(=O)[C@H](Cc3ccc(OCC(=O)O)cc3)NC(=O)[C@H](CCN)NC(=O)CSC[C@@H](C(=O)N[C@@H](CCN)C(=O)NCCOCCOCC(=O)NCCOCCOCC(=O)NCCCCCCCCCCCCC(=O)O)NC(=O)[C@H](CCC(=O)O)NC(=O)[C@H](C(C)(C)O)NC(=O)[C@H](CC3CCCCC3)NC(=O)[C@H](CCN)NC(=O)[C@@H](CC(C)C)NC(=O)[C@H](CCCN)NC(=O)[C@H](Cc3ccc(OCC(=O)O)cc3)NC(=O)[C@H](Cc3ccc(-c4ccccc4)cc3)NC(=O)[C@H](Cc3ccc(OCC(=O)O)cc3)NC2=O)c1` [Compound 3758] ({CH2CO}-[Dab]Y(Carboxymethyl)D[Phe(3-Me)]Y(Carboxymethyl)[Bip]Y(Carboxymethyl)[Orn][dL][Dab][Cha][Val(3-OH)]EC[Dab][AEEA][AEEA]-{NH(CH2)12COOH}; thioether N-14), the concentration for half-maximal inhibition (IC50) came out at 19 nM.

Take `Cc1cccc(C[C@@H]2NC(=O)[C@H](CC(=O)O)NC(=O)[C@H](Cc3ccc(OCC(=O)O)cc3)NC(=O)[C@H](CCN)NC(=O)CSC[C@@H](C(=O)N[C@@H](CCN)C(=O)NCCOCCOCC(=O)NCCOCCOCC(=O)NCCCCCCCCCCCCC(=O)O)NC(=O)[C@H](CCC(=O)O)NC(=O)[C@H](C(C)(C)O)NC(=O)[C@H](CC3CCCCC3)NC(=O)[C@H](CCN)NC(=O)[C@@H](CC(C)C)NC(=O)[C@H](CCCN)NC(=O)[C@H](Cc3ccc(C(=O)O)cc3)NC(=O)[C@H](Cc3ccc(-c4ccccc4)cc3)NC(=O)[C@H](Cc3ccc(C(=O)O)cc3)NC2=O)c1` [Compound 3759] ({CH2CO}-[Dab]Y(Carboxymethyl)D[Phe(3-Me)][Phe(4-COOH)][Bip][Phe(4-COOH)][Orn][dL][Dab][Cha][Val(3-OH)]EC[Dab][AEEA][AEEA]-{NH(CH2)12COOH}; thioether N-14): the IC50 was determined as 39.2 nM.

On to `Cc1cccc(C[C@@H]2NC(=O)[C@H](CC(=O)O)NC(=O)[C@H](Cc3ccc(OCC(=O)O)cc3)NC(=O)[C@H](CCN)NC(=O)CSC[C@@H](C(=O)N[C@@H](CCN)C(=O)NCCOCCOCC(=O)NCCOCCOCC(=O)NCCCCCCCCCCCCC(=O)O)NC(=O)[C@H](Cc3cnc[nH]3)NC(=O)[C@H](C(C)(C)O)NC(=O)[C@H](CC3CCCCC3)NC(=O)[C@H](CCN)NC(=O)[C@@H](CC(C)C)NC(=O)[C@H](CCCN)NC(=O)[C@H](Cc3ccc(OCC(=O)O)cc3)NC(=O)[C@H](Cc3ccc(-c4ccccc4)cc3)NC(=O)[C@H](Cc3ccc(OCC(=O)O)cc3)NC2=O)c1` [Compound 3760] ({CH2CO}-[Dab]Y(Carboxymethyl)D[Phe(3-Me)]Y(Carboxymethyl)[Bip]Y(Carboxymethyl)[Orn][dL][Dab][Cha][Val(3-OH)]HC[Dab][AEEA][AEEA]-{NH(CH2)12COOH}; thioether N-14), for which the IC50 came to 4.7 nM.

Broadly, the IC50 is the midpoint of a concentration-inhibition curve.
